This is an account of results in the Biogen ADME set (Fang et al. 2023).

The aqueous solubility is how much of the substance goes into solution per volume. A higher aqueous solubility goes with a readily soluble substance.

Molecules are shown by their SMILES. Converted amounts (≈) assume the structure as drawn.

The conditions of the data set: for aqueous solubility: pH 6.8.

Regarding `O=[N+]([O-])c1ccc(S(=O)(=O)Nc2cccc(-c3nc4ccccc4[nH]3)c2)cc1`, the intrinsic clearance, human liver microsomes turned out to be 21.1 mL/min/kg and the intrinsic clearance, rat liver microsomes was determined as 993 mL/min/kg.
Turning to `CCc1noc(COc2c(C)ccnc2Cl)n1`, the aqueous solubility amounted to 23.3 µg/mL (≈ 91.8 µM).
Regarding `C#CCNC(=O)Cc1coc(-c2ccccc2)n1`, the MDR1-MDCK efflux ratio was determined as 0.719; the intrinsic clearance, human liver microsomes was determined as 26.9 mL/min/kg; the intrinsic clearance, rat liver microsomes is 142 mL/min/kg.
The like results for `COc1cc(Br)c2c(=O)[nH]c(C)nc2c1` were, in that order, 0.691, 13.9 mL/min/kg and 148 mL/min/kg.
On the same counts, the results for `CCOC1CCN(c2ccnc(C(=O)NCc3ccccc3)c2)CC1` are 0.488, 18.3 mL/min/kg and 390 mL/min/kg.
As for `CCn1c(SC)nnc1C1CCN(C)CC1`, the MDR1-MDCK efflux ratio turned out to be 7.45; the intrinsic clearance, human liver microsomes was not above 4.74 mL/min/kg; the intrinsic clearance, rat liver microsomes is not above 10.7 mL/min/kg; the aqueous solubility is 41.2 µg/mL (≈ 171 µM).
Take `COc1ccc(CNC(=O)c2sc3nc(C)cc(C)c3c2N)cc1`: the MDR1-MDCK efflux ratio is 0.386; the fraction unbound, human plasma came to 0.0044; the fraction unbound, rat plasma is 0.00657; the intrinsic clearance, human liver microsomes stood at 44.1 mL/min/kg. In addition, the intrinsic clearance, rat liver microsomes stood at 558 mL/min/kg.
In turn, `Cc1cc(Oc2cnccn2)ccc1N` gave an intrinsic clearance, human liver microsomes not above 4.74 mL/min/kg; an intrinsic clearance, rat liver microsomes of 31.2 mL/min/kg; an aqueous solubility of 21.9 µg/mL (≈ 109 µM).
As to `c1ccc(N2CCOCC2)c(CNc2cc(N3CCCC3)ncn2)c1`, the MDR1-MDCK efflux ratio amounted to 2.09; the intrinsic clearance, human liver microsomes came out at 190 mL/min/kg; the intrinsic clearance, rat liver microsomes stood at 1520 mL/min/kg.
For the compound `CN1CCN(c2ncncc2-c2nc(-c3ccccc3)no2)CC1`, the MDR1-MDCK efflux ratio came to 0.527; the intrinsic clearance, human liver microsomes was 28.1 mL/min/kg; the intrinsic clearance, rat liver microsomes is 484 mL/min/kg; the aqueous solubility is 56.4 µg/mL (≈ 175 µM).
On the same counts, the results for `O=C(/C=C/c1ccc(Cl)cc1)N1CCC2(CC1)CN(Cc1ccc(Cl)c(Cl)c1)C(=O)O2` are 2.5, 22.8 mL/min/kg, 474 mL/min/kg and 2.15 µg/mL (≈ 4.48 µM).
On the same counts, the results for `CC(=O)NC1(C(=O)N2CCCN(c3cccnn3)CC2)CCCCC1` are 21.8, 7.73 mL/min/kg, 20.9 mL/min/kg and 48.3 µg/mL (≈ 140 µM).
On the same counts, the results for `Clc1ccc(Cc2nc(-c3ccccc3)n[nH]2)cn1` are 1.52, 40.9 mL/min/kg, 66.8 mL/min/kg and 20.1 µg/mL (≈ 74.2 µM).
Regarding `Cc1ccc(CCC(=O)Nc2nccc3sccc23)o1`, the MDR1-MDCK efflux ratio came out at 0.465; the intrinsic clearance, human liver microsomes came to 66.2 mL/min/kg; the intrinsic clearance, rat liver microsomes was determined as 1140 mL/min/kg.
As for `COc1ccccc1-n1cc2c(c1-c1ccccc1Br)c(=O)n(C)c(=O)n2C`, the MDR1-MDCK efflux ratio is 2.26 and the aqueous solubility turned out to be 0.81 µg/mL (≈ 1.84 µM).
On the same counts, the results for `COc1ccccc1N1CCN(c2nc(-c3ccc(F)cc3)cc(=O)[nH]2)CC1` are 2.15 and 0.2 µg/mL (≈ 0.526 µM).
The compound `Cc1nn(C)c2nc(C(C)C)cc(C(=O)O)c12` gave an intrinsic clearance, human liver microsomes not above 4.74 mL/min/kg; an intrinsic clearance, rat liver microsomes not above 10.7 mL/min/kg; an aqueous solubility of 32.5 µg/mL (≈ 139 µM).
Turning to `C=CC(=O)Nc1cc(-n2c(=O)ccc3cnc4ccc(-c5ccc(NS(C)(=O)=O)cc5)cc4c32)ccc1C`, the MDR1-MDCK efflux ratio amounted to 50.5 and the aqueous solubility is 0.3 µg/mL (≈ 0.572 µM).
Turning to `COc1ccc2c(c1)C=C(CN1CCC(c3cc(-c4cncnc4)cc(C)n3)CC1)CO2`, the MDR1-MDCK efflux ratio amounted to 1.42; the intrinsic clearance, human liver microsomes was determined as 49.8 mL/min/kg; the intrinsic clearance, rat liver microsomes was found to be 201 mL/min/kg; the aqueous solubility came to 22.9 µg/mL (≈ 53.3 µM).
On the same counts, the results for `CCCn1cnnc1Cn1ccnc1-c1ccc2occc2c1` are 93.8, not above 4.74 mL/min/kg, 16.6 mL/min/kg and 28.6 µg/mL (≈ 93.1 µM).
The like results for `NC(=O)CN1CCC(Oc2cccc(F)c2)CC1` were, in that order, 0.543, not above 4.74 mL/min/kg, 71.6 mL/min/kg and 60.8 µg/mL (≈ 241 µM).
`N#CCC1(n2cc(-c3ncnc4[nH]ccc34)cn2)CNC1` gave an aqueous solubility of 32.6 µg/mL (≈ 117 µM).
In turn, `CC(C)(C)c1cc(NS(=O)(=O)c2cccc(F)c2)cc(C(C)(C)C)c1` returned an intrinsic clearance, human liver microsomes of 10 mL/min/kg and an intrinsic clearance, rat liver microsomes of 306 mL/min/kg.
On to `Cc1ccc(-c2cn(CC3CCN(Cc4c[nH]c(C)n4)CC3)nn2)cc1`, for which the MDR1-MDCK efflux ratio stood at 23.3; the intrinsic clearance, human liver microsomes was not above 4.74 mL/min/kg; the intrinsic clearance, rat liver microsomes was 32.4 mL/min/kg; the aqueous solubility came to 25 µg/mL (≈ 71.3 µM).
The like results for `Cc1nc(N2CCOc3ccccc3C2)c2cnn(C)c2n1` were, in that order, 0.513, 62.7 mL/min/kg, 272 mL/min/kg and 42.8 µg/mL (≈ 145 µM).
As for `COc1cccc(NC(=O)C2CNC2)c1`, the intrinsic clearance, human liver microsomes was not above 4.74 mL/min/kg; the intrinsic clearance, rat liver microsomes was found to be 59.4 mL/min/kg; the aqueous solubility came to 29.5 µg/mL (≈ 143 µM).
As for `Cc1cc(C)n(-c2ccc(CNC(=O)C3CCC3)cn2)n1`, the MDR1-MDCK efflux ratio is 1.08; the intrinsic clearance, human liver microsomes was found to be 9.73 mL/min/kg; the intrinsic clearance, rat liver microsomes is 571 mL/min/kg; the aqueous solubility is 39.7 µg/mL (≈ 140 µM).
The like results for `CNC(=O)c1cccc(Oc2ncnc3c2CN(C)CC3)c1` were, in that order, 19.2, not above 4.74 mL/min/kg, not above 10.7 mL/min/kg and 46.9 µg/mL (≈ 157 µM).
Consider `COc1c(C)cnc(Cn2cc(C#CCC(C)(C)O)c3c(Cl)nc(N)nc32)c1C`, for which the intrinsic clearance, human liver microsomes is 58.2 mL/min/kg and the intrinsic clearance, rat liver microsomes turned out to be 145 mL/min/kg.
`NCCCC[C@H](N[C@@H](CCc1ccccc1)C(=O)O)C(=O)N1CCC[C@H]1C(=O)O` showed a fraction unbound, rat plasma of 1.
Regarding `C#CCNC(=O)CCc1c(C)nn(C)c1C`, the MDR1-MDCK efflux ratio came out at 7.96; the intrinsic clearance, human liver microsomes was not above 4.74 mL/min/kg; the intrinsic clearance, rat liver microsomes was not above 10.7 mL/min/kg; the aqueous solubility was found to be 60.9 µg/mL (≈ 278 µM).
Turning to `C=CC(=O)Nc1cccc(Nc2nc(Nc3ccc(Oc4ccnc(C(=O)NC)c4)cc3)ncc2F)c1`, the MDR1-MDCK efflux ratio stood at 13.2; the fraction unbound, human plasma stood at 0.00395; the intrinsic clearance, human liver microsomes was 66.5 mL/min/kg; the intrinsic clearance, rat liver microsomes stood at 322 mL/min/kg.
Take `COc1cc2c(cc1OC)-c1[nH]nc(NCc3c(Cl)cccc3Cl)c1C2=O`: the MDR1-MDCK efflux ratio worked out at 3.05 and the aqueous solubility amounted to 0.29 µg/mL (≈ 0.717 µM).
`CN1CCN(c2cccc(C#N)n2)CC1` returned an intrinsic clearance, human liver microsomes not above 4.74 mL/min/kg and an intrinsic clearance, rat liver microsomes of 617 mL/min/kg.
For the compound `CC(C)[C@H]1C(=O)N[C@H](CO)Cc2cc(NC(=O)/C=C/C=C/c3ccc(C(F)(F)F)cc3)ccc2N1C`, the MDR1-MDCK efflux ratio stood at 55.9; the intrinsic clearance, human liver microsomes came to 497 mL/min/kg; the intrinsic clearance, rat liver microsomes is 439 mL/min/kg.
Consider `Cc1cccc(NC(=O)CN2CCCN(c3ccc(C(F)(F)F)cn3)CC2)c1`, for which the MDR1-MDCK efflux ratio came to 0.951; the intrinsic clearance, human liver microsomes was 150 mL/min/kg; the intrinsic clearance, rat liver microsomes stood at 724 mL/min/kg; the aqueous solubility amounted to 25.7 µg/mL (≈ 65.5 µM).
Take `CN(CC(=O)NC1(C#N)CCCC1)c1ccccc1`: the MDR1-MDCK efflux ratio was determined as 0.924; the intrinsic clearance, human liver microsomes is 20.3 mL/min/kg; the intrinsic clearance, rat liver microsomes was 498 mL/min/kg; the aqueous solubility stood at 46.5 µg/mL (≈ 181 µM).
Take `CC(C)c1nnc(CN(C(C)C)C2CCOCC2)o1`: the MDR1-MDCK efflux ratio was 0.93; the intrinsic clearance, human liver microsomes was found to be 6.75 mL/min/kg; the intrinsic clearance, rat liver microsomes stood at 220 mL/min/kg.
`Cc1cccc2cc(C(=O)NCCSc3nccn3C)n(C)c12` displayed an intrinsic clearance, human liver microsomes of 180 mL/min/kg; an intrinsic clearance, rat liver microsomes of 727 mL/min/kg; an aqueous solubility of 33.5 µg/mL (≈ 102 µM).
Consider `CN(Cc1ccc(N)nc1)c1nc(C(F)(F)F)cs1`, for which the MDR1-MDCK efflux ratio came out at 0.598; the intrinsic clearance, human liver microsomes was not above 4.74 mL/min/kg; the intrinsic clearance, rat liver microsomes turned out to be 116 mL/min/kg.
In the case of `Cc1noc(C2CCN(CCc3ccccc3)CC2)n1`, the MDR1-MDCK efflux ratio is 0.492; the intrinsic clearance, human liver microsomes is 18 mL/min/kg; the intrinsic clearance, rat liver microsomes was determined as 448 mL/min/kg; the aqueous solubility was 63.8 µg/mL (≈ 235 µM).
For `Cc1ccc(C)n1-c1ccc(CNS(C)(=O)=O)cc1`, the aqueous solubility is 24.2 µg/mL (≈ 86.9 µM).
With `CC(=O)NC[C@H]1C[C@]2(C)[C@@H](CCCC[C@]2(C)O)N1CC1(O)CCCC1`, the MDR1-MDCK efflux ratio was 8.2; the intrinsic clearance, human liver microsomes was not above 4.74 mL/min/kg; the intrinsic clearance, rat liver microsomes was determined as 107 mL/min/kg.
Compound `O=S(=O)(NCCC(c1ccccc1)c1ccccc1)c1ccc(Cl)cc1` registered an intrinsic clearance, human liver microsomes of 396 mL/min/kg and an intrinsic clearance, rat liver microsomes of 9320 mL/min/kg.
`COc1ccc2nc(C)nc(N3CC(CO)C3)c2c1`: the MDR1-MDCK efflux ratio amounted to 11.5; the intrinsic clearance, human liver microsomes is 5.26 mL/min/kg; the intrinsic clearance, rat liver microsomes is 13.6 mL/min/kg; the aqueous solubility was determined as 29.3 µg/mL (≈ 113 µM).
Take `COc1ccc(C(=O)N2CCCC2)cc1NC(=O)c1cc(F)c(F)c(F)c1F`: the intrinsic clearance, human liver microsomes was not above 4.74 mL/min/kg; the intrinsic clearance, rat liver microsomes was found to be 90.1 mL/min/kg; the aqueous solubility came out at 43.9 µg/mL (≈ 111 µM).
With `O=C(c1ccccc1N1CCOCC1)N(Cc1ccccn1)C1CCCCC1`, the MDR1-MDCK efflux ratio was 3.17; the intrinsic clearance, human liver microsomes is 990 mL/min/kg; the intrinsic clearance, rat liver microsomes is 3840 mL/min/kg.
`Cc1cccc2c1Oc1nc(-c3ccccc3)[nH]c(=S)c1C2` had an aqueous solubility of 0.33 µg/mL (≈ 1.08 µM).
Regarding `O=C(CN1CCCN(c2nccs2)CC1)Nc1cccc(Cl)c1`, the MDR1-MDCK efflux ratio was 0.851; the intrinsic clearance, human liver microsomes was 442 mL/min/kg; the intrinsic clearance, rat liver microsomes was determined as 1950 mL/min/kg; the aqueous solubility turned out to be 37.1 µg/mL (≈ 106 µM).
